Experimental data taken from paper PMC8997913, “Lichen Secondary Metabolites Inhibit the Wnt/β-Catenin Pathway in Glioblastoma Cells and Improve the Anticancer Effects of Temozolomide” (Cells, 2022).

Experiments:
[1] = Parallel artificial membrane permeability assay for the blood-brain barrier (PAMPA-BBB); format: in vitro ADME; settings: pH 7.4, 4 h, 37 °C; for Papp at 4 h, 24.75 µg/mL: mean ± SEM, n = 3, Pe > 1.5 high, < 1.5 low permeation predicted, read-out: Pe × 10^−6
Description: The parallel artificial membrane permeability assay (PAMPA) for the blood-brain barrier (BBB) (Pion Inc., Billerica, MA, USA) was used to analyze whether the lichen secondary metabolites tested in this study were able to cross the BBB. The stock solutions (5 mg/mL) of tested compounds were prepared using DMSO. Next, the donor solution (24.75 μg/mL) using Prisma buffer (pH = 7.4; Prisma HT, Pion Inc., Billerica, MA, USA) were made. Firstly, 180 μL of the donor solution were added to the donor wells. Then the filter membranes were coated with 5 μL BBB-1 lipid solution (Pion Inc., Billerica, MA, USA) and the acceptor wells were filled with 200 μL BSB (Brain Sink Buffer, Pion Inc., Billerica, MA, USA). The plates were sandwiched together and incubated for 4 h at 37 °C (Thermo Scientific MaxQ 4450, Waltham, MA, USA). The results were determined by spectroscopic analysis (Multiskan GO microplate reader, Waltham, MA, USA), with the appropriate wavelength for a given compound (240 nm for […] salazinic acid, 250 nm for atranorin and squamatic acid, 263 nm for physodic acid, and 270 nm for lecanoric acid). […] Pe is the effective permeability coefficient (cm/s), VD-donor volume, VA-acceptor volume, Ceq-equilibrium concentration, Ceq=CD×VD+CA×VA/VD+VA , S-membrane area, and t-incubation time (in seconds). […] Samples were analyzed in triplicate, and the average was reported.

[2] = test system: Wnt/β-catenin pathway target genes in A-172 cells; assay: qPCR of β-catenin and Wnt target genes, A-172; format: cell-based, human; settings: A-172, 48 h
Description: Based on the MTT test, the lichen secondary metabolite concentrations allowing the survival of more than 70% of cells were chosen for the subsequent experiments. The compounds were added as follows: A-172 cells—atranorin 25 µM, caperatic acid 50 µM, physodic acid 25 µM, squamatic acid 25 µM, salazinic acid 50 µM, and lecanoric acid 100 µM; T98G cells—atranorin 50 µM, caperatic acid 100 µM, physodic acid 25 µM, squamatic acid 50 µM, salazinic acid 100 µM, and lecanoric acid 100 µM; U-138 MG cells—atranorin 25 µM, caperatic acid 50 µM, physodic acid 25 µM, squamatic acid 50 µM, salazinic acid 50 µM, and lecanoric acid 100 µM. As far as the TMZ treatment is concerned, it was added in the concentrations depending on the MGMT expression and methylation status, i.e., TMZ 30 µM was added to the A-172 cell line, and TMZ 100 µM was added to both the T98G and U-138 MG cell lines. In the case of the 2D culture, the cells were treated with the compounds 24 h after seeding, whereas, in regard to 3D culture, 5 days were needed to form spheroids. All subsequent analyses were performed 48 h after treatment.
The Universal RNA Purification Kit (EURx, Gdańsk, Poland) was used for total RNA isolation from the A-172, T98G, and U-138 MG cells, and the Revert-Aid First Strand cDNA Synthesis kit (Fermentas, Burlington, ON, Canada) was chosen for cDNA synthesis. Quantitative real-time PCR (qPCR) was performed using Hot FIREPol EvaGreen qPCR Mix Plus (Solis Biodyne, Tartu, Estonia) and LightCycler 96 (Roche Diagnostics GmbH, Mannheim, Germany). Primer sequences were previously published and their synthesis was performed at the Institute of Biochemistry and Biophysics, Warsaw, Poland. The protocol started with 15 min enzyme activation at 95 °C, followed by 40 cycles of 95 °C for 15 s; appropriate annealing temperature for 20 s; 72 °C for 40 s and the final elongation at 72 °C for 5 min. Melting curve analysis was used to confirm the generation of a single amplification product. TATA box-binding protein (TBP), a component of the DNA-binding protein complex TFIID, served as the endogenous RNA control. The results were expressed as N-fold differences in the gene expression relative to the TBP gene. The ΔΔCt method was used for fold-change calculation. All samples were analyzed in triplicate, and the reaction was repeated at least twice.

[3] = test system: U-138 MG cells; assay: MTT test, U-138 MG; format: cell-based, human; settings: 48 h; for IC50: Homo sapiens, U138-MG, three independent experiments, read-out: IC50 [uM] ± SEM U-138 MG
Description: Three human GBM cell lines were used in this study, i.e., A-172 (ATCC-CRL-1620), T98G (92090213), and U-138 MG (ATCC-HTB-16). The A-172 and U-138 MG cell lines were purchased from the American Type Culture Collection (ATCC), whereas the T98G cell line was obtained from the European Collection of Authenticated Cell Cultures (ECACC). It has been confirmed by us that O^6-methylguanine-DNA methyltransferase (MGMT), the key factor determining the response to alkylating agents, such as TMZ, is expressed in T98G and U-138 MG cells, whereas in A-172 the expression of MGMT is silenced by promoter methylation. Therefore, the cell lines differ in terms of TMZ sensitivity; A-172 is regarded as TMZ sensitive, whereas T98G and U-138 MG are TMZ resistant.
The cells were grown as monolayers (2D cell culture) in the recommended media: A-172 were grown in the ATCC-formulated DMEM (Merck, Darmstadt, Germany), whereas T98G and U-138 MG cell lines were grown in the ATCC-formulated EMEM (Merck, Darmstadt, Germany). These media were supplemented with FBS (Biowest, Nuaillé, France) to a final concentration of 10%, as well as antibiotics (penicillin and streptomycin) (Merck, Darmstadt, Germany) to the final concentrations of 1%. For the experiments, the amount of FBS was reduced to 5%. The medium for the T98G cell line was supplemented with 2 mM glutamine, 1% nonessential amino acids, and 1% sodium pyruvate (all purchased from Merck, Darmstadt, Germany).
In order to analyze the cytotoxicity of the analyzed lichen secondary metabolites, as well as to establish the appropriate concentrations for further analysis (allowing the survival of >70% of cells), we performed the MTT test. The procedure of the test was described previously. Briefly, the cells (10,000 cells per well) were seeded on the 96-well plates and left for 24 h. Afterwards, the analyzed compounds in the concentration range of 1 µM up to 100 µM were added to the cells and left for 48 h incubation. DMSO treated cells served as control. After the above-mentioned time, the cells were washed twice with warm PBS and incubated for 3 h in the presence of a fresh medium containing MTT salt (0.5 mg/mL). Then the formazan crystals were dissolved in acidic isopropanol. The absorbance was measured at 570 and 690 nm on a Tecan Infinite M200 microplate reader (Grödig, Austria). The experiments were repeated at least three times.

[4] = mRNA vs DMSO control, single agent, (TMZ 30 µM)
[5] = mRNA vs DMSO control, single agent

Row | Compound | Papp at 4 h, 24.75 µg/mL [1] [×10⁻⁶ cm/s] | Axin2 expression [2, 4] | IC50 [3] [µM] | NEDD9 expression [2, 5] | c-MYC expression [2, 4] | Pe × 10^−6 (cm/s), class [1] | number of viable cells ([3]; U-138 MG, 50 µM) | CCND1 expression ([2]; co-treatment with TMZ 30 µM) | BIRC5 expression [2, 5]
1 | COC(=O)c1c(C)cc(OC(=O)c2c(C)cc(O)c(C=O)c2O)c(C)c1O [Atranorin] | 2.2 ± 0.1 | downregulated | 47.8 ± 2.16 | – | – | – | – | – | –
2 | Cc1cc(O)c(C=O)c2c1C(=O)Oc1c(CO)c(O)c3c(c1O2)C(O)OC3=O (stereo not drawn) [Salazinic acid] | – | – | > 100 | – | – | np (np—classified as non-permeable (i.e., Pe < 0.5 × 10^−6 cm/s)) | significantly reduced the number of viable cells | – | –

More lines, main results first:

Row | Papp at 4 h, 24.75 µg/mL [1] [×10⁻⁶ cm/s] | Compound | Axin2 expression [2, 4] | IC50 [3] [µM] | NEDD9 expression [2, 5] | c-MYC expression [2, 4] | Pe × 10^−6 (cm/s), class [1] | number of viable cells ([3]; U-138 MG, 50 µM) | CCND1 expression ([2]; co-treatment with TMZ 30 µM) | BIRC5 expression [2, 5]
3 | 5.2 ± 0.1 | CCCCCCCCCCCCCCC(C(=O)O)C(O)(CC(=O)OC)C(=O)O (stereo not drawn) [Caperatic acid] | downregulated | > 100 | downregulated | – | – | – | – | –
4 | 1.7 ± 0.2 | Cc1cc(OC(=O)c2c(C)cc(O)cc2O)cc(O)c1C(=O)O [Lecanoric acid] | – | > 100 | – | upregulated | – | – | – | –
5 | 0.5 ± 0.1 | COc1cc(C)c(C(=O)Oc2cc(C)c(C(=O)O)c(O)c2C)c(O)c1C(=O)O [Squamatic acid] | downregulated | > 100 | – | – | – | – | upregulation | diminished
